Columns and labels:
Assay in all cases: KINOMEscan binding
Conditions in all cases: read-out: Percent Control
KIT(A829P) = biological target: T1, KIT(A829P) (Homo sapiens, UniProt P10721, A829P)
T1 construct: purchased Eurofins DiscoverX KINOMEscan

PYK2 = biological target: T2, PYK2 (Homo sapiens, UniProt Q14289)
T2 construct: purchased Eurofins DiscoverX KINOMEscan

LYN = biological target: T3, LYN (Homo sapiens, UniProt P07948)
T3 construct: purchased Eurofins DiscoverX KINOMEscan

FAK = biological target: T4, FAK (Homo sapiens, UniProt Q05397)
T4 construct: purchased Eurofins DiscoverX KINOMEscan

RIOK2 = biological target: T5, RIOK2 (Homo sapiens, UniProt Q9BVS4)
T5 construct: purchased Eurofins DiscoverX KINOMEscan

CDKL3 = biological target: T6, CDKL3 (Homo sapiens, UniProt Q8IVW4)
T6 construct: purchased Eurofins DiscoverX KINOMEscan

AURKB = biological target: T7, AURKB (Homo sapiens, UniProt Q96GD4)
T7 construct: purchased Eurofins DiscoverX KINOMEscan

CDK9 = biological target: T8, CDK9 (Homo sapiens, UniProt P50750)
T8 construct: purchased Eurofins DiscoverX KINOMEscan

MST1R = biological target: T9, MST1R (Homo sapiens, UniProt Q04912)
T9 construct: purchased Eurofins DiscoverX KINOMEscan

MLK1 = biological target: T10, MLK1 (Homo sapiens, UniProt P80192)
T10 construct: purchased Eurofins DiscoverX KINOMEscan

MARK3 = biological target: T11, MARK3 (Homo sapiens, UniProt P27448)
T11 construct: purchased Eurofins DiscoverX KINOMEscan

CHEK2 = biological target: T12, CHEK2 (Homo sapiens, UniProt O96017)
T12 construct: purchased Eurofins DiscoverX KINOMEscan

CIT = biological target: T13, CIT (Homo sapiens, UniProt O14578)
T13 construct: purchased Eurofins DiscoverX KINOMEscan

FLT3-autoinhibited = biological target: T14, FLT3-autoinhibited (Homo sapiens, UniProt P36888)
T14 construct: purchased Eurofins DiscoverX KINOMEscan

CSF1R = biological target: T15, CSF1R (Homo sapiens, UniProt P07333)
T15 construct: purchased Eurofins DiscoverX KINOMEscan

BMPR1B = biological target: T16, BMPR1B (Homo sapiens, UniProt O00238)
T16 construct: purchased Eurofins DiscoverX KINOMEscan

ULK2 = biological target: T17, ULK2 (Homo sapiens, UniProt Q8IYT8)
T17 construct: purchased Eurofins DiscoverX KINOMEscan

KIT-autoinhibited = biological target: T18, KIT-autoinhibited (Homo sapiens, UniProt P10721)
T18 construct: purchased Eurofins DiscoverX KINOMEscan

STK39 = biological target: T19, STK39 (Homo sapiens, UniProt Q9UEW8)
T19 construct: purchased Eurofins DiscoverX KINOMEscan

IKK-beta = biological target: T20, IKK-beta (Homo sapiens, UniProt O14920)
T20 construct: purchased Eurofins DiscoverX KINOMEscan

SGK2 = biological target: T21, SGK2 (Homo sapiens, UniProt Q9HBY8)
T21 construct: purchased Eurofins DiscoverX KINOMEscan

MUSK = biological target: T22, MUSK (Homo sapiens, UniProt O15146)
T22 construct: purchased Eurofins DiscoverX KINOMEscan

CSK = biological target: T23, CSK (Homo sapiens, UniProt P41240)
T23 construct: purchased Eurofins DiscoverX KINOMEscan

GSK3A = biological target: T24, GSK3A (Homo sapiens, UniProt P49840)
T24 construct: purchased Eurofins DiscoverX KINOMEscan

[1] = biological target: T25, RSK4(Kin.Dom.2-C-terminal) (Homo sapiens, UniProt Q9UK32)
T25 construct: RSK4(Kin.Dom.2-C-terminal); purchased Eurofins DiscoverX KINOMEscan

EPHA6 = biological target: T26, EPHA6 (Homo sapiens, UniProt Q9UF33)
T26 construct: purchased Eurofins DiscoverX KINOMEscan

FGFR4 = biological target: T27, FGFR4 (Homo sapiens, UniProt P22455)
T27 construct: purchased Eurofins DiscoverX KINOMEscan

FLT3 = biological target: T28, FLT3 (Homo sapiens, UniProt P36888)
T28 construct: purchased Eurofins DiscoverX KINOMEscan

CAMKK2 = biological target: T29, CAMKK2 (Homo sapiens, UniProt Q96RR4)
T29 construct: purchased Eurofins DiscoverX KINOMEscan

DCAMKL2 = biological target: T30, DCAMKL2 (Homo sapiens, UniProt Q8N568)
T30 construct: purchased Eurofins DiscoverX KINOMEscan

MAP4K3 = biological target: T31, MAP4K3 (Homo sapiens, UniProt Q8IVH8)
T31 construct: purchased Eurofins DiscoverX KINOMEscan

PIK4CB = biological target: T32, PIK4CB (Homo sapiens, UniProt Q9UBF8)
T32 construct: purchased Eurofins DiscoverX KINOMEscan

[2] = biological target: T33, JAK2(JH1domain-catalytic) (Homo sapiens, UniProt O60674)
T33 construct: JAK2(JH1domain-catalytic); purchased Eurofins DiscoverX KINOMEscan

[3] = biological target: T34, RSK3(Kin.Dom.1-N-terminal) (Homo sapiens, UniProt Q15349)
T34 construct: RSK3(Kin.Dom.1-N-terminal); purchased Eurofins DiscoverX KINOMEscan

CAMK1G = biological target: T35, CAMK1G (Homo sapiens, UniProt Q96NX5)
T35 construct: purchased Eurofins DiscoverX KINOMEscan

PIK3CG = biological target: T36, PIK3CG (Homo sapiens, UniProt P48736)
T36 construct: purchased Eurofins DiscoverX KINOMEscan
T36 sequence (P48736 whole entry): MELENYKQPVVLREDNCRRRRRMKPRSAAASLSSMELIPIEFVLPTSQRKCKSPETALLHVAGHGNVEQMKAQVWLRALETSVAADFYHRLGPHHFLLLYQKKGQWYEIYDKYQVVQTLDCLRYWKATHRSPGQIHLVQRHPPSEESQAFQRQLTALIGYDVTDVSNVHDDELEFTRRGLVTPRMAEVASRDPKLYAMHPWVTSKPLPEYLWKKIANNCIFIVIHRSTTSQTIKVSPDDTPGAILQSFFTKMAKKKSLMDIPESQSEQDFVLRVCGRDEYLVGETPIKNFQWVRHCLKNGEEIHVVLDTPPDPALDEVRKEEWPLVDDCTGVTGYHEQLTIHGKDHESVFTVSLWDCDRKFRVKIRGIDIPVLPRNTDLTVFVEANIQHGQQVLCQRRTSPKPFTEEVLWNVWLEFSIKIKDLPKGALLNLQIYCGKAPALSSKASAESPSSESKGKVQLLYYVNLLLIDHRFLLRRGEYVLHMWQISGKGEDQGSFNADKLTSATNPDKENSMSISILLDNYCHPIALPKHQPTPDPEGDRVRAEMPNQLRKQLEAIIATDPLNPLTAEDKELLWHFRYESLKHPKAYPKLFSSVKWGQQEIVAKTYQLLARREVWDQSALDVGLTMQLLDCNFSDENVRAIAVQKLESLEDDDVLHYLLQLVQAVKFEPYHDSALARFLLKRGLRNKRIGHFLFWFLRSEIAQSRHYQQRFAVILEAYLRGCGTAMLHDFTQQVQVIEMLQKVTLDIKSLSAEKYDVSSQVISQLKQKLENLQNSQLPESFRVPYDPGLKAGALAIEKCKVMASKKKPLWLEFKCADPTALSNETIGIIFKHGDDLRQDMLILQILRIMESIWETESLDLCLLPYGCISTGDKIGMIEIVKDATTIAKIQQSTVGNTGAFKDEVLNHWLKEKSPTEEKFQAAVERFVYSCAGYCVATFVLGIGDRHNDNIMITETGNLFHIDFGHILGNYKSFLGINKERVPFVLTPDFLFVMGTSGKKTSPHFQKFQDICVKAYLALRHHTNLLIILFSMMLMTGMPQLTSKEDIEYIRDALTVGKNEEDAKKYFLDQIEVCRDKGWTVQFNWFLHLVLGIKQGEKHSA

T25 sequence (Q9UK32 401-745 limits assumed): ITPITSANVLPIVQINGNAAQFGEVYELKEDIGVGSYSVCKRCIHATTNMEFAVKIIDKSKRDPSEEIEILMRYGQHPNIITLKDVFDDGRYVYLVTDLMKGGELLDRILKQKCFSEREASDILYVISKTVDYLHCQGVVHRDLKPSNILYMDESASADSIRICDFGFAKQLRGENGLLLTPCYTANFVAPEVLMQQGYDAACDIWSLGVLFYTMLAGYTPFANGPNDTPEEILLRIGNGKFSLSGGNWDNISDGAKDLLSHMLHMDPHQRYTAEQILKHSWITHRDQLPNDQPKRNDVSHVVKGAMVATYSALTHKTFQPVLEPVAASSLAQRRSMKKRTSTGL
T16 sequence (O00238 14-502): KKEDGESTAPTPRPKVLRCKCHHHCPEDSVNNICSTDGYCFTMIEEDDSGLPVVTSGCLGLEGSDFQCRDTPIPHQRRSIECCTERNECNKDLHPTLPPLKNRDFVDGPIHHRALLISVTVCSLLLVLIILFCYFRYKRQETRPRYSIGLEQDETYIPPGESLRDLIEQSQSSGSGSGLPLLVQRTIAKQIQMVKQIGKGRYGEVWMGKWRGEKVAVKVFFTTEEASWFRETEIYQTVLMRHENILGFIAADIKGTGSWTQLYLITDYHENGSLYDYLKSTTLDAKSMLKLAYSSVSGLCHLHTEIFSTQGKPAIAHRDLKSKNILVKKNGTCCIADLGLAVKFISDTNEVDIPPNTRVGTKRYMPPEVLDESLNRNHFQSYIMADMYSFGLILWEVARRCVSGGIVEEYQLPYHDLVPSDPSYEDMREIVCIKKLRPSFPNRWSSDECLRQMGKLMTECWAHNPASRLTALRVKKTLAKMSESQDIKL
T4 sequence (Q05397 whole entry): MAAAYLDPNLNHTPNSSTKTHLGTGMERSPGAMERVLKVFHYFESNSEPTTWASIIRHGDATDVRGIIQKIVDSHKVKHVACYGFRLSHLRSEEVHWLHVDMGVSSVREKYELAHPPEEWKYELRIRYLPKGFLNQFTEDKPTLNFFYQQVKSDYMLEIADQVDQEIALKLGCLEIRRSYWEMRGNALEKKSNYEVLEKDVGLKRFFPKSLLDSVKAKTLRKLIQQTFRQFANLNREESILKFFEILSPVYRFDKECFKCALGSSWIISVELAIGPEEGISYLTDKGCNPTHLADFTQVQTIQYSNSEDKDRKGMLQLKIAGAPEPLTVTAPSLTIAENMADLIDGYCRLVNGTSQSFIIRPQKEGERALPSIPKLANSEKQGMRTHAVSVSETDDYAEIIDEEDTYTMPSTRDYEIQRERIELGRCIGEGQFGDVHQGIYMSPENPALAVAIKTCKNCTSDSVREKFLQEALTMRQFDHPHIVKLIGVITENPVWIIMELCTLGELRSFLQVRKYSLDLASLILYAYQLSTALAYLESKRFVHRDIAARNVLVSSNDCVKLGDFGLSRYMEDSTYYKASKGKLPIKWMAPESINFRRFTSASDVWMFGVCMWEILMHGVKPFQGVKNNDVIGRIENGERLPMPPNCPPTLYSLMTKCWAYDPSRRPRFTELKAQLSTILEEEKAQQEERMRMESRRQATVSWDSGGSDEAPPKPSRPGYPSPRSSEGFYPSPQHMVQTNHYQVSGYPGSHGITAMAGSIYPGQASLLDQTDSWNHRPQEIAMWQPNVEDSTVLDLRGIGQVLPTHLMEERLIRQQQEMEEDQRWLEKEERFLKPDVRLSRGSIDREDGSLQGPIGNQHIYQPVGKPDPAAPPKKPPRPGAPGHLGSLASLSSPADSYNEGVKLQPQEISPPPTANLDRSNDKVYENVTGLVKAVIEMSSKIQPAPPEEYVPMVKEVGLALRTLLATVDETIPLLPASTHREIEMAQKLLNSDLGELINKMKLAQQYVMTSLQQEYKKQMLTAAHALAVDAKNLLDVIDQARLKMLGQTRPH
T5 sequence (Q9BVS4 whole entry): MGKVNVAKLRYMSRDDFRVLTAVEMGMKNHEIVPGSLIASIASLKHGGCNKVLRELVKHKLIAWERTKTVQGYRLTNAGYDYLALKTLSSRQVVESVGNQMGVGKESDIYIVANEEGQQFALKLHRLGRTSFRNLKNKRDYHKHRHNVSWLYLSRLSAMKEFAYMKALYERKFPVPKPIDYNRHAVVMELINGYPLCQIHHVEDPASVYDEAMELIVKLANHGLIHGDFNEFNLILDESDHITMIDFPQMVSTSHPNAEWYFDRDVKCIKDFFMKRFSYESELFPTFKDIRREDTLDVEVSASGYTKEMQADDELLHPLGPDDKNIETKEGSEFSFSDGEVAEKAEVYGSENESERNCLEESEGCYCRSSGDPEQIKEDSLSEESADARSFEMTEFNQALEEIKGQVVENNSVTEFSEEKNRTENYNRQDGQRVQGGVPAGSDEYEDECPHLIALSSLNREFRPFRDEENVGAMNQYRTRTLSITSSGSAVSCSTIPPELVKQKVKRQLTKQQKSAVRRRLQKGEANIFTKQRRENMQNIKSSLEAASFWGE
T29 sequence (Q96RR4 whole entry): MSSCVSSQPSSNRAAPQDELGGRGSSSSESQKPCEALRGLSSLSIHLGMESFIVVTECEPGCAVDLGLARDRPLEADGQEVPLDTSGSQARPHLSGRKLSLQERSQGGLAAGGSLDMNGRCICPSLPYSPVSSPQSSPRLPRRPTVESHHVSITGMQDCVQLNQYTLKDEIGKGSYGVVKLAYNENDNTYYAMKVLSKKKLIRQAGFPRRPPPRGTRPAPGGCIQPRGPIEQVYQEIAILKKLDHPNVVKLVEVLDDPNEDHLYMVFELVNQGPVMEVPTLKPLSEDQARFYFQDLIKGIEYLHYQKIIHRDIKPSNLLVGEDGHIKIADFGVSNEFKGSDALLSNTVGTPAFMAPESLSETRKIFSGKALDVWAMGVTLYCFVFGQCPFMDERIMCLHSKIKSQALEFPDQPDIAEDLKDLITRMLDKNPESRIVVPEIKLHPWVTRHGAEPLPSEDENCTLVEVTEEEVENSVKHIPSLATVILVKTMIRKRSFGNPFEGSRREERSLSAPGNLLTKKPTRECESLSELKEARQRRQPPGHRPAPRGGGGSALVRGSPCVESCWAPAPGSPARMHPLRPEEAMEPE
T3 sequence (P07948 whole entry): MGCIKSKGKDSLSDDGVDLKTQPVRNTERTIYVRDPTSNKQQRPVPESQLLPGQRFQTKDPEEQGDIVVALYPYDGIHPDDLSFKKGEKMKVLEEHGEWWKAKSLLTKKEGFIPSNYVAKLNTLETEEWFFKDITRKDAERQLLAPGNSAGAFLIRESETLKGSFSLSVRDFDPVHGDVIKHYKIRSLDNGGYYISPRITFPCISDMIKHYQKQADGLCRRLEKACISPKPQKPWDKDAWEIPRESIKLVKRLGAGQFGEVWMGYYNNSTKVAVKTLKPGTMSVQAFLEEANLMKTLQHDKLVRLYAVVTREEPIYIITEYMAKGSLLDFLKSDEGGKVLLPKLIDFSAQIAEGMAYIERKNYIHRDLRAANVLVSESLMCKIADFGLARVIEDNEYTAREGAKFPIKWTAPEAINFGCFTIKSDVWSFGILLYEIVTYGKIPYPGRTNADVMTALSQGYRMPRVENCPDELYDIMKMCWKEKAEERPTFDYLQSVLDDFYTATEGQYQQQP
T33 sequence (O60674 840-1132 limits assumed): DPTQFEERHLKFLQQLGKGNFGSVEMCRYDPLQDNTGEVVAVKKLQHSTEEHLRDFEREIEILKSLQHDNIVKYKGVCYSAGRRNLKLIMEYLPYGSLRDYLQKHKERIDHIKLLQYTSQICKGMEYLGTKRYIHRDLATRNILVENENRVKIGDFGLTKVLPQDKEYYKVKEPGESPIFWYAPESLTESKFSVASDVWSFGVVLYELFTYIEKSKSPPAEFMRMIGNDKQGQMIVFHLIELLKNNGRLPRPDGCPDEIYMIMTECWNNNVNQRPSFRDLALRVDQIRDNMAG

What does the source list for `CC(C)NC(=O)COc1cccc(-c2nc(Nc3ccc4[nH]ncc4c3)c3ccccc3n2)c1` [KD025, 2-(3-(4-((1H-indazol-5-yl)amino)quinazolin-2-yl)phenoxy)-N-isopropylacetamide]?
remaining binding at 10 µM (KIT(A829P)): 53%; remaining binding at 10 µM (PYK2): 95%; remaining binding at 10 µM (LYN): 100%; remaining binding at 10 µM (FAK): 92%; remaining binding at 10 µM (RIOK2): 60%; remaining binding at 10 µM (CDKL3): 91%; remaining binding at 10 µM (AURKB): 61%; remaining binding at 10 µM (CDK9): 96%; remaining binding at 10 µM (MST1R): 71%; remaining binding at 10 µM (MLK1): 87%; remaining binding at 10 µM (MARK3): 92%; remaining binding at 10 µM (CHEK2): 99%; remaining binding at 10 µM (CIT): 75%; remaining binding at 10 µM (FLT3-autoinhibited): 71%; remaining binding at 10 µM (CSF1R): 99%; remaining binding at 10 µM (BMPR1B): 76%; remaining binding at 10 µM (ULK2): 87%; remaining binding at 10 µM (KIT-autoinhibited): 78%; remaining binding at 10 µM (STK39): 100%; remaining binding at 10 µM (IKK-beta): 100%; remaining binding at 10 µM (SGK2): 100%; remaining binding at 10 µM (MUSK): 59%; remaining binding at 10 µM (CSK): 88%; remaining binding at 10 µM (GSK3A): 100%; remaining binding at 10 µM [1]: 88%; remaining binding at 10 µM (EPHA6): 90%; remaining binding at 10 µM (FGFR4): 91%; remaining binding at 10 µM (FLT3): 60%; remaining binding at 10 µM (CAMKK2): 100%; remaining binding at 10 µM (DCAMKL2): 79%; remaining binding at 10 µM (MAP4K3): 78%; remaining binding at 10 µM (PIK4CB): 92%; remaining binding at 10 µM [2]: 51%; remaining binding at 10 µM [3]: 31%; remaining binding at 10 µM (CAMK1G): 88%; remaining binding at 10 µM (PIK3CG): 82%

— PMC8401933 (Molecules, 2021)
